Source: patent US20040038861A1, “Methods and compositions for normalizing lipid levels in mammalian tissues” (priority 2001, published 2004)
Where no end group is shown, it is not given here.

How the values were obtained:
[1] = biological target: metabolic amylin receptor
soleus muscle [2] = assay: cAMP content of isolated soleus muscle from normal fed rats; type: cell-based, rat; conditions: for cAMP content in soleus muscles: 1 μM isoproterenol
Experimental: (§1) Soleus muscle preparation. All experiments were performed according to protocols approved by the Institutional Animal Ethics Committee. 5-6 week-old male Wistar rats (160 g) were kept on a 12:12-h light/dark cycle, and fed and watered ad libitum. Animals were anaesthetised with 50 mg/kg Nembutal (pentobarbitone sodium), then sacrificed by cervical dislocation. Soleus muscles were dissected under oxygenated KHB (118 mM NaCl, 4.75 mM KCl, 1.2 mM MgSO4, 24.8 mM NaHCO3, 1.2 mM KH2PO4, 2.54 mM CaCl2, 10 mM glucose, pH 7.4) and teased into halves, then incubated as described below.
(§2) For the measurement of cAMP in muscle, isolated soleus strips were incubated with stated concentrations of peptides, then lyophilized and deproteinized. Each strip was placed in 400 μl of 0.5 M HClO4 with 5 mM EDTA (phosphodiesterase inhibitor) and sonicated three times in 20 s bursts. Tubes were heated for 3-5 min in boiling water to coagulate protein, then centrifuged (12,000 g, 4° C., 2 min). Supernatant (300 μl) was taken and the pH adjusted to 7.0 with 75 μl of 2 M NH4OH. The samples were refrigerated (4° C., 2 h) to precipitate proteins, then centrifuged under the same conditions as above and 50 μl taken for cAMP measurement.

[3] = biological target: T1, murine ramp 1/C1ins− receptor (Mus musculus, UniProt Q60755+Q9WTJ5); assay: Radioligand binding and displacement of [3H]amylin in L6 myoblasts co-transfected with murine ramp 1 and C1ins−; conditions: displacement of [3H]amylin, FIG. 9A
T1 construct: expressed in transfected cells; host or cells: L6 myoblasts (ATCC), transient co-transfection of pcDNA3.1 plasmids
T1 sequence (Q60755 42-496 isoform Q60755-2 limits assumed): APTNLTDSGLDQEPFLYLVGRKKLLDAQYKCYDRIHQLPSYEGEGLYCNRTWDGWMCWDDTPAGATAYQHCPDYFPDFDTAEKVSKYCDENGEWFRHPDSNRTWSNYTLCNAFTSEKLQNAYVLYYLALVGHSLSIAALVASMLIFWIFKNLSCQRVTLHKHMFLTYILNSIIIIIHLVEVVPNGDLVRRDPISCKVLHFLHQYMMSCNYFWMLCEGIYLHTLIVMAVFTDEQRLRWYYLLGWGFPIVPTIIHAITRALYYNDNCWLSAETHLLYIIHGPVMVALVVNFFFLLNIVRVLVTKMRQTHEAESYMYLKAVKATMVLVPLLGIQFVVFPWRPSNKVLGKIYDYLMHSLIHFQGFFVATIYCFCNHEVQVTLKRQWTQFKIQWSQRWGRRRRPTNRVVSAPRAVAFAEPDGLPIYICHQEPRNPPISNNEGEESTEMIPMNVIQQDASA
T1 sequence (Q9WTJ5 27-148 partner): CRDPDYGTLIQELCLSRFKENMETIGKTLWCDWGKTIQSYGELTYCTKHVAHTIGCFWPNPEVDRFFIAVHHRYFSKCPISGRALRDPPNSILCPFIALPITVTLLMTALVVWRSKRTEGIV
Experimental: Transfection of L6 myoblasts and cos-7 cells, and analysis of radioligand binding. L6 myoblasts and cos-7 cells were obtained from ATCC. Both cell lines were cultered in Dulbecco's modified Eagle's medium (DMEM; Gibco/BRL, high glucose) supplemented with 10% fetal calf serum (Gibco/BRL, Gaithersburg, Md.), L-glutamine (2 mM), penicillin (100 U/ml; Sigma), streptomycin (100 mg/ml; Sigma), saline (0.85%), under 5% CO2/95% air at 37° C. The day before transfection, cells were trypsinised and seeded into six-well plates at a density of 2.9×10^5 cells/well in the same medium. For transfection, cells were incubated with a mixture comprising 1 μg each of Qiagen-purified (Qiagen, Valencia, Calif.) plasmids containing C1ins− with either ramp 1 or ramp 3, and Fugene reagent (6 μl; Boehringer Mannheim) in Opti-Mem I medium (Gibco/BRL). The complex was added with serum to cells, which were incubated for a further 48 h.
For binding experiments, radioligand (either alone or together with stated final concentrations of non-radiolabeled ligands) was dissolved in DMEM containing 0.1% BSA (binding buffer) for 1 h before binding experiments were performed. […] Cells were washed twice with this buffer, then incubated with 1 ml of the same plus radioligand for 4 h at room temperature (21° C.).

soleus muscle [4] = assay: Lipid metabolites (free fatty acid, glycerol, triglyceride; enzymatic analysis) in isolated soleus muscle from normally fed rats; type: cell-based, rat; conditions: 1 h; for free fatty acid content in conjunction with 100 nM CGRP: 10 μM antagonist or maximally stimulating insulin (23.7 nM) + 100 nM CGRP, CGRP alone 334±52; for free fatty acid content in conjunction with 100 nM amylin: 10 μM antagonist or maximally stimulating insulin (23.7 nM) + 100 nM amylin, amylin alone 216±26
soleus muscle [5] = assay: Glucose transport (2-deoxy-D-glucose uptake) in incubated soleus muscle strips; type: cell-based, rat
Experimental: as §1
Determination of rates of glucose transport in incubated soleus muscle strips. 4-5 muscle strips were added to each flask, which contained 10 ml DMEM. They were pre-incubated with hormones as indicated for 30 min at 30° C. in a shaking water bath, after which 5 μl of 2[^3H]DOG (0.5 μCi/ml) and 5 μl D[^14C(U)]sorbitol (0.05 μCi/ml) were added, then incubated for another 30 min; RIA grade BSA was added to 0.9% (w/v) to prevent non-specific binding of insulin to flasks. Following incubation, muscle strips were transferred to ice-cold KHB for 5-10 min to remove excess [^3H]DOG and [^14C]sorbitol. They were then blotted, frozen, tendons excised, then lyophilized for a further 48 h. Muscles were then weighed, transferred to scintillation vials and digested with 0.5 ml 1 M NaOH at 60° C. for 1 h. Scintillation fluid (4 ml) was added to each vial, and samples counted in a Beckman liquid scintillation spectrometer, preset to count ^14C and ^3H channels simultaneously. The amount of each isotope present in the samples was determined and used to calculate the extracellular space and the intracellular concentration of [^3H]DOG. The accumulation of intracellular [^3H]DOG, a measure of muscle glucose uptake, was calculated by subtracting the concentration of [^3H]DOG in the extracellular space from the corresponding total muscle [^3H]DOG]; extracellular [^3H]DOG was quantified by measuring the muscle concentration of [^14C]sorbitol.
Data analysis. One way ANOVA, Dunnett's Multiple Comparisons Test, and unpaired Student's t-tests were used to calculate the statistical significance of differences, as appropriate. Dose-response curves were fitted to a sigmoidal dose-response algorithm, as follows: Y=minimum+(maximum−minimum)/([…] log ^(EC50^−X), for 2-DOG-uptake; and by a four parameter logistic model, Y=minimum+(maximum−minimum)/(1+10 log ^(EC50^−X)Hill-Coefficient) for total glycogen and [^14C]glucose incorporation. Calculations were performed using Prism v2.0 (GraphPad Software, San Diego, Calif.) to derive values for half-maximal effective concentration (EC50). Displacement curves derived for competition of bound radioligand with cold ligand in transfected cells were calculated according to a one site competition fit using Prism v2.0.

soleus muscle [6] = assay: Masoprocol effect on CGRP1-evoked NEFA and triglyceride contents in soleus muscle from high fat-fed rats; type: cell-based, rat; conditions: 50 μM masoprocol with 100 nM or 1 pM CGRP1
Excerpt: Masoprocol, (nordihydroguaiaretic acid), is a lipoxygenase inhibitor, that has been identified as the active component of Creosote bush extracts. Oral administration of this compound lowers serum NEFA and triglyceride concentrations in rats with fructose-induced hypertriglyceridemia (Gowri et al. 2000, Am. J. Physiol. 279: E593-E600), and decrease blood glucose and triglyceride concentrations in a fat-fed/streptozotocin rat model (Reed et al. 1999, Diabetologia 42: 102-106).

soleus muscle [7] = assay: cAMP content of isolated soleus muscle from high fat-fed rats; type: cell-based, rat
Experimental: as §1, §2

Wistar rats [8] = assay: Serum hormones and blood metabolites following acute CGRP infusion in anaesthetised normal-fed rats; type: in vivo, rat; conditions: end vs commencement of infusion
Experimental: (§3) Surgery. Experiments were performed on male Wistar rats. Animals were randomly assigned to experimental groups as outlined below. Induction and maintenance of surgical anesthesia was by 3-5% halothane and 2L oxygen. An initial blood sample was taken from a tail artery for measurement of baseline levels of blood glucose and lactate, electrolyte, acid base and oxygen status and serum levels of free fatty acids, triglyceride and cholesterol. Immediately following this, the trachea was cannulated and the animal ventilated at 60-70 breaths.min-1 with air supplemented with O2. The respiratory rate and end-tidal pressure (10-15 cmH2O) were adjusted to maintain end-tidal CO2 at 35-40 mmHg. Body temperature was maintained at 37° C. throughout surgery and the experiment by a heating pad. The carotid artery and jugular vein were cannulated with a solid-state blood pressure transducer and a saline filled PE 50 catheter respectively. For the antagonist infusion studies, surgery was similar to above with the alteration being that both the carotid artery and jugular vein were cannulated with saline filled PE 50 catheters. Fluids (saline or hormone dissolved in saline) were delivered to the jugular vein with a Y-connector to join the two lines. The carotid artery line was connected to a blood pressure transducer. Blood samples were taken from this line at time zero (baseline reading), 30 minutes and every 20 minutes until the end of the experiment at 90 minutes.
Infusion. […] Blood glucose measurements were taken from tail capillaries at 5-minute intervals throughout the duration of the experiment. At the end of the infusion a terminal blood sample was taken by cardiac puncture and analysed as per the basal sample and also for various metabolites and hormones. Serum and plasma samples were stored at −80° C. until future analysis. Animals were killed by cervical dislocation and harvested tissues (brain, liver, kidney, soleus muscle, extensor digitorum longus muscle, left ventricle, retroperitoneal and epididymal fat pads) snap frozen in liquid N2 and stored at −80° C. until future analysis.

Wistar rats [9] = assay: Tissue free fatty acid and triglyceride content following infusion in normal-fed rats; type: in vivo, rat
Experimental: as §3
Infusion. […] Blood glucose measurements were taken from tail capillaries at 5-minute intervals throughout the duration of the experiment. At the end of the infusion a terminal blood sample was taken by cardiac puncture and analysed as per the basal sample and also for various metabolites and hormones. Serum and plasma samples were stored at −80° C. until future analysis. Animals were killed by cervical dislocation and harvested tissues (brain, liver, kidney, soleus muscle, extensor digitorum longus muscle, left ventricle, retroperitoneal and epididymal fat pads) snap frozen in liquid N2 and stored at −80° C. until future analysis. For the antagonist studies, the protocols was the same as above with the following changes: Infusion was a combination of antagonist, CGRP or saline.

In the case of rat CGRP-1 (ligand; unit assumed), the EC50, total glycogen content, with insulin (23.7 nM) [1] is reported as 4.3 nM.

For “rat amylin (from UniProt P12969) (ligand; unit assumed)”, the EC50, total glycogen content, with insulin (23.7 nM) [1] was 8.1 nM.

For CNCC(O)c1ccc(O)c(O)c1 (stereo not shown) [adrenaline], the “cAMP content, agonist alone” value (soleus muscle [2]; normal fed, 100 nM CGRP or adrenaline, control 3.9±0.2) was 9.6 ± 0.7 pmol/mg.

In the case of Human adrenomedullin, the “competition with amylin for binding to co-transfected cells” value [3] is reported as “competed only very weakly”.

With CC(C)NCC(O)c1ccc(O)c(O)c1 (stereo not shown) [isoproterenol] the “cAMP content in soleus muscles” value (soleus muscle [2]; experiment of FIG. 13A) was 3.5 ± 0.2 pmol/mg and the “cAMP content in soleus muscles” value (soleus muscle [2]; experiment of FIG. 13B) was 3.8 ± 0.2 pmol/mg.

With “rat calcitonin (CGNLSTCMLGTYTQDLNKFHTFPQTSIGVGAP; ends and bridges not checked; cysteine pairing not given here) [calcitonin family peptide from Bachem]” the “competition with amylin for binding to co-transfected cells” value [3] was “competed only very weakly”.

“insulin: Soluble human insulin (Actrapid 100U, Novo Nordisk)” was tested, and the “free fatty acid content in conjunction with 100 nM CGRP” value (soleus muscle [4]) was 107 ± 17 nmol/g, the “free fatty acid content in conjunction with 100 nM amylin” value (soleus muscle [4]) was 100 ± 11 nmol/g and the “intramuscular free fatty acid content” value (soleus muscle [4]; soleus, normally fed rats, 100 nM amylin or CGRP-1, 4.4 μM norepinephrine, 23.7 nM insulin, control 78±21) was 67 ± 9 nmol/g. For the same molecule, the 2-DOG-uptake (soleus muscle [5]; hormone alone (amylin 10 nM; insulin 23.7 nM), basal 8.8 ± 0.9) was 28.4 ± 6.4 nmol/g dry-wt muscle/min and the “stimulation of glucose uptake” value (soleus muscle [5]; insulin 23.7 nM vs basal) was 3.2 fold.

Molecule “salmon calcitonin (from UniProt P01263) (ligand; unit assumed)” has an EC50, total glycogen content, with insulin (23.7 nM) [1] of 0.6 nM.

In the case of CC(Cc1ccc(O)c(O)c1)C(C)Cc1ccc(O)c(O)c1 (stereo not shown) [masoprocol, nordihydroguaiaretic acid], the “effect on CGRP1-evoked NEFA elevation” value (soleus muscle [6]) is reported as “completely reversed NEFA elevation” and the “effect on CGRP1-evoked decrements in triglyceride content” value (soleus muscle [6]) is reported as “completely reversed decrements in soleus triglyceride content”.

In the case of human CGRP1-(8-37) [CGRP-(8-37)], the “free fatty acid concentration in conjunction with 1 pM CGRP” value (soleus muscle [4]; 100 pM antagonist + 1 pM CGRP, CGRP alone 166±18) is reported as 68±8 nmol/g, the “free fatty acid content in conjunction with 100 nM CGRP” value (soleus muscle [4]) is reported as 90 ± 7 nmol/g and the “free fatty acid content in conjunction with 100 nM amylin” value (soleus muscle [4]) is reported as 65 ± 8 nmol/g. For the same molecule, the “cAMP content with 100 nM CGRP plus antagonist” value (soleus muscle [2]; normal fed, 10-fold molar excess of antagonist, CGRP alone 6.9±0.8) was 4.8 ± 0.2 pmol/mg, the “cAMP content with 100 nM CGRP1 plus antagonist” value (soleus muscle [7]; 10-fold molar excess of antagonist) was 5.4 ± 0.4 pmol/mg and the “cAMP content with 1 pM CGRP plus antagonist” value (soleus muscle [7]; 10-molar excess of antagonist, CGRP alone 8.6±0.4) was 4.7±0.5 pmol/mg. For the same molecule, the “Change in [serum] Triglyceride” value (Wistar rats [8]; CGRP 60 min, CGRP-(8-37) 90 min, control 0.2) was 0.9 mmol/L, the “Change in [serum] FFA” value (Wistar rats [8]; control −0.1) was -0.3 mmol/L and the “Change in Lactate” value (Wistar rats [8]; heparinised whole blood, control 0.3) was 0.02 mmol/L. The “FFA content, Heart” value (Wistar rats [9]; CGRP 100 pmol/kg/min 1 h, CGRP-(8-37) 10 nmol/kg/min 90 minutes, control 0.8 ± 0.2) was 0.9 ± 0.2 µmol/g, the “FFA content, Liver” value (Wistar rats [9]; same infusions, control 0.1 ± 0.01) was 0.06 ± 0.04 µmol/g and the “FFA content, Soleus Muscle” value (Wistar rats [9]; same infusions, control 0.2 ± 0.02) was 0.1 ± 0.02 µmol/g. The “FFA content, Kidney” value (Wistar rats [9]; same infusions, control 0.8 ± 0.1) was 0.8 ± 0.1 µmol/g, the “FFA content, Epi Adipose” value (Wistar rats [9]; same infusions, control 2.1 ± 0.5) was 2.2 ± 0.6 µmol/g and the “triglyceride content, Kidney” value (Wistar rats [9]; same infusions, control 2.8 ± 0.5) was 2.5 ± 0.4 µmol/g. The “triglyceride content, Heart” value (Wistar rats [9]; same infusions, control 2.9 ± 0.4) was 3.1 ± 0.4 µmol/g, the “triglyceride content, Soleus Muscle” value (Wistar rats [9]; same infusions, control 3.7 ± 0.4) was 4.3 ± 0.4 µmol/g and the “triglyceride content, Liver” value (Wistar rats [9]; same infusions, control 4.3 ± 0.3) was 5.8 ± 0.4 µmol/g. The “triglyceride content, Epi Adipose” value (Wistar rats [9]; same infusions, control 5.1 ± 1.2) was 4.9 ± 1 µmol/g.

CSNLSTCVLGKLSQELHKLQTYPRTNTGSGTP (ligand, ends and bridges not checked; cysteine pairing not given here) [salmon calcitonin] gave an EC50, ^14C-glucose incorporation into glycogen, with insulin (23.7 nM) [1] of 0.9 nM, an EC50, ^14C-glucose incorporation into glycogen, without insulin [1] of 0.1 nM and an EC50, total glycogen content, without insulin [1] of 1.7 nM.
